For data set [1] the following is noted: dog, in vivo.
Procedure: • Dogs were administered various prodrugs of cpr-PMEDAP as 0.2 mg/kg 30 minute IV infusions. […] Alanine was the L isomer. • Blood was collected into potassium EDTA and separated by centrifugation. Primary blood mononuclear cells (PBMCs) were collected using CPT tubes (sodium citrate). • For analysis, plasma samples were precipitated by addition of 100 μL acetonitrile containing internal standards (D4AP and TDF) to 100 μL of plasma for prodrug analysis. After protein precipitation by centrifugation, 100 μL was transferred into another tube to be dried and then reconstituted in 100 μL water with 0.2% formic acid. An aliquot of 20 μL was injected onto the column for LC/MS/MS analysis. Analysis was done using a 150×2.0 mm, 4 μm Synergi Fusion-RP 80A column (Phenomenex) and a multistage linear gradient from 0.5 to 99% acetonitrile in the presence of 0.2% formic acid at 0.25 mL/min. Analytes were detected using a Sciex API-4000 mass spectrometer using electrospray ionization in positive MRM mode. […] Separate aliquots of cells from each time point resuspended in 100% serum were used to establish the cell quantities in each sample. Cell samples were normalized to 15×10^6 cells per sample. […] 20 μL was injected for LC/MS/MS analysis using a 50×2.0 mm, 4 μm Synergi Hydro-RP 80A column (Phenomenex) and a multistage linear gradient from 0 to 95% acetonitrile in the presence of 0.2% formic acid at 1.0 mL/min. Analytes were detected using a Sciex API-4000 mass spectrometer using electrospray ionization in positive MRM mode. • After drying, samples for dephosphorylation were treated with 1 U of calf intestinal phosphatase (alkaline phosphotase, Sigma) for 2 h in manufacturer provided buffer. Samples were then adjusted to 60% acetonitrile dried and resuspended in 60% acetonitrile containing internal standards (TDF and D4AP) and analyzed for cpr-PMEDAP as described for direct PBMC analysis.
Data set [2] concerns PHA-blast (human T-cells). The data set can be described thus: Anti-proliferation in human PHA-lymphoblasts (BrdU/XTT). The format is cell-based. Conditions: T-cell, 72 h, read-out: Anti-Proliferation EC50. Background: Formazan colour is commonly taken as a measure of viable cells.
Data set [3] concerns CEM (T-lymphoid). The data set can be described thus: Anti-proliferation in CEM cells. The format is cell-based, human. Particulars: Homo sapiens, 72 h; CEM (T-lymphoid), 3 days incubation; read-out: Anti-Proliferation EC50.
Procedure: (§1) Compounds were tested using human and canine lymphoblasts (stimulated with a T-cell mitogen phytohaemagglutinin (PHA) or a B-cell mitogen pokeweed mitogen (PWM)), two T-lymphoid cell lines derived from patients with acute lymphocytic leukemia (CEM and Molt-4), two myeloid cell lines derived from patients with acute myelogenous leukemia (KG-1 and HL-60), two B-lymphoid cell lines derived from Burkitt's lymphoma (Daudi and Raji), a B-lymphoid cell line from non-Hodgkin's lymphoma (RL), a T-lymphoid cell line from cutaneous T-lymphoma (PM-1), and a monocytic cell line from histiocytic lymphoma (U937). Lymphoblasts (150,000 cells per microtiter well) and leukemia/lymphoma cell lines (30,000 cells per well) were incubated with 5-fold serial dilutions of compounds for 3 days.
The subject of data set [4] is Molt 4 (T-lymphoid). The data set is described as follows: Anti-proliferation in Molt 4 cells. The format is cell-based, human. Particulars: Homo sapiens, 72 h; Molt 4 (T-lymphoid), 3 days incubation; read-out: Anti-Proliferation EC50.
Procedure: as §1
For data set [5], the system named is KG-1 (Myeloid). The data set can be described thus: Anti-proliferation in KG-1 cells. Particulars: Homo sapiens, 72 h; KG-1 (Myeloid), 3 days incubation; read-out: Anti-Proliferation EC50. The format is cell-based, human.
Procedure: as §1
The subject of data set [6] is HL-60 (Myeloid). The data set can be described thus: Anti-proliferation in HL-60 cells. The data set is classed as cell-based, human. Particulars: Homo sapiens, 72 h; HL-60 (Myeloid), 3 days incubation; read-out: Anti-Proliferation EC50.
Procedure: as §1
For data set [7], the system named is RL (B-lymphoid). The data set is described as follows: Anti-proliferation in RL cells. The format is cell-based. Conditions: Homo sapiens, 72 h, 3 days incubation.
Procedure: as §1
For data set [8], the system named is Daudi (B-lymphoid). The data set can be described thus: Anti-proliferation in Daudi cells. The data set is classed as cell-based, human. Conditions: Homo sapiens, 72 h, 3 days incubation.
Procedure: as §1
Data set [9] deals with Raji (B-lymphoid). The data set is described as follows: Anti-proliferation in Raji cells. The data set is classed as cell-based, human. Particulars: Homo sapiens, 72 h, 3 days incubation.
Procedure: as §1
Data set [10] deals with PM-1 (T-lymphoid). The data set can be described thus: Anti-proliferation in PM-1 cells. Particulars: Homo sapiens, 72 h; PM-1 (T-lymphoid), 3 days incubation; read-out: Anti-Proliferation EC50. The format is cell-based, human.
Procedure: as §1
Data set [11] deals with U937 (Monocytic). The data set can be described thus: Anti-proliferation in U937 cells. The format is cell-based, human. Particulars: Homo sapiens, U-937, 72 h; U937 (Monocytic), 3 days incubation; read-out: Anti-Proliferation EC50.
The test system of data set [12] is lymphoblasts and leukemia/lymphoma cell lines. The data set is described as follows: Anti-proliferation, EC50 range over the cell panel. The format is cell-based. Particulars: range over a variety of lymphoblasts and leukemia/lymphoma cell lines. As to the method: A variety of compounds that are used for treatment of hematologic malignancies were also tested, including a DNA polymerase inhibitor (ara-C), DNA polymerase/ribonucleotide reductase inhibitors (cladribine, clofarabine, fludarabine, gemcitabine), an adenosine deaminase inhibitor (deoxycoformycin), a DNA methylation inhibitor (decitabine), a […] (doxorubicin), and a mitosis inhibitor (vincristine). All compounds, with the exception of doxorubicin and vincristine, are nucleoside analogs; ara-C, gemcitabine, and decitabine are cytosine analogs and the rest are adenosine analogs. cpr-PMEDAP and PMEG can be considered adenosine and guanosine analogs, respectively. Compounds were tested using human and canine lymphoblasts (stimulated with a T-cell mitogen phytohaemagglutinin (PHA) or a B-cell mitogen pokeweed mitogen (PWM)), two T-lymphoid cell lines derived from patients with acute lymphocytic leukemia (CEM and Molt-4), two myeloid cell lines derived from patients with acute myelogenous leukemia (KG-1 and HL-60), two B-lymphoid cell lines derived from Burkitt's lymphoma (Daudi and Raji), a B-lymphoid cell line from non-Hodgkin's lymphoma (RL), a T-lymphoid cell line from cutaneous T-lymphoma (PM-1), and a monocytic cell line from histiocytic lymphoma (U937).
Lymphoblasts (150,000 cells per microtiter well) and leukemia/lymphoma cell lines (30,000 cells per well) were incubated with 5-fold serial dilutions of compounds for 3 days. BrdU assay was performed as follows: Lymphoblasts were incubated with 5-fold serial dilutions of compounds in microtiter plates (150,000 cells per well) for 3 days. On Day 3, cells were labeled with 10 μM BrdU for 3 hrs and the amount of BrdU incorporated into cellular DNA was quantified by Enzyme-Linked Immunosorbent Assay (ELISA). Alternatively, cells were incubated with 1 mg/mL XTT reagent (sodium 3,3′-[1[(phenylamino) carbonyl]-3,4-tetrazolium]-bis(4-methoxy-6-nitro) benzene sulfonic acid hydrate) and 1% PMS (phenazine methosulfate) for 2 hrs, and color change (mitochondrial dehydrogenase reduces yellow-colored XTT to orange-colored formazan salt) was quantified. […] Assays were repeated 2-20 times, until the standard error of the mean (SEM) became smaller than 50% of the mean value.

Data set [13] concerns PWM-blast (human B-cells). The data set can be described thus: Anti-proliferation in human PWM-lymphoblasts (BrdU/XTT). The data set is classed as cell-based. Particulars: B-cell, 72 h, 3 days incubation.
The test system of data set [14] is PHA-blast (canine T-cells). The data set can be described thus: Anti-proliferation in canine PHA-lymphoblasts (BrdU/XTT). The format is cell-based. Particulars: Canis lupus familiaris, T-cell, 72 h, 3 days incubation.
The test system of data set [15] is PWM-blast (canine B-cells). The data set can be described thus: Anti-proliferation in canine PWM-lymphoblasts (BrdU/XTT). The format is cell-based. Particulars: Canis lupus familiaris, B-cell, 72 h, 3 days incubation.
[16] abbreviates: PHA-blast (human T-cells), 3 days incubation.

Like-named read-outs stand apart in the source and are kept apart here.

Consider `C[C@H](NP(=O)(COCCn1cnc2c(NC3CC3)nc(N)nc21)Oc1ccccc1)C(=O)OC(C)(C)C` (single isomer, unassigned) [MonoAlatBu(A)], for which the “PBMC to Plasma ratio” value in data set [1] is on record as 19.

On to `Nc1ccn([C@@H]2O[C@H](CO)[C@@H](O)[C@@H]2O)c(=O)n1` [Ara-C, Cytarabine], for which the EC50 was found to be 1820 nM in [2] (Homo sapiens); 143 nM in data set [3]; 23 nM in [4]; 56 nM in [5]; 212 nM in [6]; 610 nM in data set [7]. In addition, the EC50 in data set [8] was 209 nM; in data set [9], 23 nM; in data set [10], 194 nM; in [11], 38 nM; in data set [12] it was 23 to 1820 nM.

As for `CC(C)OC(=O)[C@H](C)NP(=O)(COCCn1cnc2c(NC3CC3)nc(N)nc21)N[C@@H](C)C(=O)OC(C)C` [BisAlaiPr], in [1], the “PBMC to Plasma ratio” value was found to be 1.2.

Take `Nc1nc(Cl)nc2c1ncn2[C@@H]1O[C@H](CO)[C@@H](O)[C@@H]1F` [Clofarabine]: the EC50 is 62 nM in [2] (Homo sapiens); 126 nM in [13]; 146 nM in data set [14]; 93 nM in data set [15]; 418 nM in [3]; 25 nM in data set [4]. The EC50 is 60 nM in data set [5]; 73 nM in data set [6]; 49.5 nM in data set [7]; 221 nM in [8]; 19.4 nM in data set [9]; 145 nM in [10]. Also, the EC50 in data set [11] is 37 nM; in data set [12], 25 to 418 nM.

Regarding `OC[C@H]1O[C@@H](n2cnc3c2NC=NC[C@H]3O)C[C@@H]1O` [Deoxy coformycin], the EC50 in [2] (Homo sapiens), in data set [4], in data set [5], in data set [6], in data set [11] and in data set [12] was more than 200000 nM each time.

`Nc1ccn([C@@H]2O[C@H](CO)[C@@H](O)C2(F)F)c(=O)n1` [Gemcitabine]: the EC50 in [2] (setting [16]) worked out at 9.6 nM; in data set [3], 21 nM; in [4], 8.5 nM; in data set [5], 5.7 nM; in data set [6], 8.6 nM; in data set [7] it was 18 nM. The EC50 in data set [8] was 6 nM; in data set [9], 3.4 nM; in data set [10], 16 nM; in data set [11], 31 nM; in data set [12], 3.4 to 18 nM.

For `CC(C)OC(=O)[C@H](C)NP(=O)(COCCn1cnc2c(NC3CC3)nc(N)nc21)Oc1ccccc1` (stereo partly drawn) [MonoAlaiPr], in data set [1], the “PBMC to Plasma ratio” value came to 17.

`C[C@H](NP(=O)(COCCn1cnc2c(NC3CC3)nc(N)nc21)Oc1ccccc1)C(=O)OC(C)(C)C` (stereo partly drawn) [MonoAlatBu]: the “PBMC to Plasma ratio” value in data set [1] was 12.

As for `CC[C@]1(O)C[C@H]2CN(CCc3c([nH]c4ccccc34)[C@@](C(=O)OC)(c3cc4c(cc3OC)N(C=O)[C@H]3[C@@](O)(C(=O)OC)[C@H](OC(C)=O)[C@]5(CC)C=CCN6CC[C@]43[C@@H]65)C2)C1` [Vincristine], the EC50 was 2.4 nM in [2] (setting [16]); 0.9 nM in [13]; 0.9 nM in [14]; 0.9 nM in [15]; 2 nM in data set [3]; 0.4 nM in data set [4]. Moreover, the EC50 in data set [5] turned out to be 3.2 nM; in data set [6], 2 nM; in [7], 1.4 nM; in data set [8] it was 0.6 nM; in [9] it was 2.5 nM; in [10] it was 5.3 nM. Moreover, the figures for the EC50 in data set [11] and in [12] were 2.8 nM and 0.6 to 5.3 nM, respectively.

These data come from patent publication US20090258840A1, “METHOD AND COMPOSITIONS FOR TREATING HEMATOLOGICAL MALIGNANCIES” (Gilead Sciences, Inc., priority 2006, published 2009).
